From patent US9883999B2, “Method for solubilizing rutin with polyhydroxy alkyl alcohols” (Colgate-Palmolive Company, priority 2013, dated 2018)

Columns and labels:
[1] = Initial evaluation of solubilizing agents for rutin by relative clarity of the solutions; type: physicochemical; conditions: 0.5% rutin added to 10 g of each test solubilizer; propylene glycol best, sorbitol worst
[2] = test system: exfoliated human oral mucosal cells; assay: Protective (anti-oxidation) efficacy of rutin solutions by cell staining method (Janus Green B, H2O2/Fe2+ challenge); type: cell-based; conditions: larger ΔE*a,b = stronger protection
Experimental: Rutin is dissolved in water to prepare a range of different levels of rutin solution. The protective efficacy of rutin solutions is measured using a cell staining method. In this method, the morphology of exfoliated human oral mucosal cells contacted with various concentrations of rutin is disclosed with Janus Green B dye. Photographic digital images are obtained using a light microscope with a 40× or 100× objective lenses connected to a digital camera. The color difference between the cell plasma and the area outside the cell, ΔE*a,b, is determined using the CIE L*a*b* system. The larger the ΔE*a,b value, the stronger the protective efficacy. The method includes the following steps: • 1. Human mucosal cells are collected and mixed with 1 mL Ringer solution, 0.5 mL Fe^2+ and 0.5 mL HAc—Ac buffer in a 5 mL Eppendorf tube. • 2. The cell suspension is then equally divided into two tubes. To the first tube is added 0.2 mL of 20 mM H2O2. To the second tube is added 0.2 mL Ringer solution. • 3. After 10 min, one drop of the above treated samples is placed on a microscope slide and stained with one drop of 0.1% Janus Green B for 1 h or longer. • 4. After staining, the cells are observed under the light microscope. Digital images are also acquired and ΔE*a, b is measured.

C[C@@H]1O[C@@H](OC[C@H]2O[C@@H](Oc3c(-c4ccc(O)c(O)c4)oc4cc(O)cc(O)c4c3=O)[C@H](O)[C@@H](O)[C@@H]2O)[C@H](O)[C@H](O)[C@H]1O [rutin, 2-(3,4-dihydroxyphenyl)-5,7-dihydroxy-3-[α-L-rhamnopyranosyl-(1→6)-β-D-glucopyranosyloxy]-4H-chromen-4-one]
solubility capability of the humectants, ranked [1]: propylene glycol>>glycerin>PEG600≈PEG-40 hydrogenated castor oil>sorbitol
Protective efficacy (ΔE*a, b) ([2]; rutin concentration 0.5 mM in water): 5.5
Protective efficacy (ΔE*a, b) ([2]; rutin concentration 1.0 mM in water): 24.7
Protective efficacy (ΔE*a, b) ([2]; rutin concentration 2.0 mM in water): 38.9
